Starred links: 1 amine or outer side, 2 acyl side, 3 side chain; linkers in the order of their positions; H or OH if unused. Positions of bridges follow the written chain, without caps; N, C: chain ends. Residues, ends and D or L forms follow the SMILES beside them. *: point of attachment. C20 diacid = O=C(O)CCCCCCCCCCCCCCCCCCC(=O)*; C18 diacid = O=C(O)CCCCCCCCCCCCCCCCC(=O)*; γGlu = O=C(O)[C@H](CCC(=O)[*:2])N[*:1]
Experiments:
[1] = Assay (III) ThT fibrillation assay for physical stability; type: physicochemical
How it was run: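 Freshly prepared formulations, pH-adjusted, with 1 μM ThT; four or eight replicates incubated at 37 °C under 960 rpm orbital shaking. Fluorescence (ex 444/em 485 nm) read every 20 min; […]. Peptide concentration measured by RP-HPLC before and after the run.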

food intake = assay: Assay (I) efficacy testing on appetite (food intake), ad libitum fed rat model; type: in vivo, Sprague Dawley (SD) rats
How it was run: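 Food consumption was logged per animal every hour up to 7 h and again at 24 h (occasionally 48 h) after a single 0.01–3 mg/kg dose, given sc, po or ip at dark-phase onset. Ad libitum fed SD rats, 200–250 g, kept on inverted light/dark cycle; vehicle group included, outliers removed by Grubbs test.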

ThT pH 4.0 lag time (h) ([1]; ThT fibrillation assay) | ThT pH 4.0 lag time ([1]; Table 8) | ThT pH 4.0 lag time ([1]; ThT fibrillation assay) | SMILES | Food intake reduction 0-24 h 3 nmol/kg (%) (food intake; 0-24 h) | Food intake reduction 0-24 h 30 nmol/kg (%) (food intake; 0-24 h, 30 nmol/kg) | Food intake reduction 24-48 h 3 nmol/kg (%) (food intake; 24-48 h) | Food intake reduction 24-48 h 30 nmol/kg (%) (food intake; 24-48 h, 30 nmol/kg)
11 h | – | – | CC[C@H](C)[C@H](NC(=O)[C@@H]1CCCN1C(=O)CNC(=O)[C@H](Cc1ccccc1)NC(=O)[C@H](CC(N)=O)NC(=O)[C@H](CC(N)=O)NC(=O)[C@H](CO)NC(=O)[C@H](CO)NC(=O)[C@H](CCCNC(=N)N)NC(=O)[C@H](Cc1c[nH]cn1)NC(=O)[C@H](CC(C)C)NC(=O)[C@H](Cc1ccccc1)NC(=O)[C@H](CCC(=O)O)NC(=O)[C@H](C)NC(=O)[C@H](CC(C)C)NC(=O)[C@H](CCCNC(=N)N)NC(=O)[C@H](CCC(N)=O)NC(=O)[C@@H](NC(=O)[C@H](C)NC(=O)[C@@H]1CSSC[C@H](NC(=O)[C@H](Cc2c[nH]cn2)NC(=O)CC[C@H](NC(=O)CCCCCCCCCCCCCCCCCCC(=O)O)C(=O)O)C(=O)N[C@@H](CC(N)=O)C(=O)N[C@@H]([C@@H](C)O)C(=O)N[C@@H](C)C(=O)N[C@@H]([C@@H](C)O)C(=O)N1)[C@@H](C)O)C(=O)N[C@@H](CC(C)C)C(=O)N1CCC[C@H]1C(=O)N1CCC[C@H]1C(=O)N[C@H](C(=O)N[C@@H](CC(N)=O)C(=O)N[C@H](C(=O)NCC(=O)N[C@@H](CO)C(=O)N[C@@H](CC(N)=O)C(=O)N[C@H](C(=O)N[C@@H](Cc1ccc(O)cc1)C(N)=O)[C@@H](C)O)C(C)C)[C@@H](C)O [Example 1, N-alpha-[(S)-4-Carboxy-4-(19-carboxynonadecanoylamino)butyryl]-[His1,Glu14,His17,Arg18]-pramlintide] ({C20 diacid-γGlu}-HCNTATCATQRLAEFLHRSSNNFGPILPPTNVGSNTY-NH2; disulfide 2-7 (inferred)) | 50% | 93% | 45% | 92%
27.9 h | 27.9 h | 27.9 h | CC[C@H](C)[C@H](NC(=O)[C@@H]1CCCN1C(=O)CNC(=O)[C@H](Cc1ccccc1)NC(=O)[C@H](CC(N)=O)NC(=O)[C@H](CC(N)=O)NC(=O)[C@H](CO)NC(=O)[C@H](CO)NC(=O)[C@H](Cc1c[nH]cn1)NC(=O)[C@H](Cc1c[nH]cn1)NC(=O)[C@H](CC(C)C)NC(=O)[C@H](Cc1ccccc1)NC(=O)[C@H](CCC(=O)O)NC(=O)[C@H](C)NC(=O)[C@H](CC(C)C)NC(=O)[C@H](CCCNC(=N)N)NC(=O)[C@H](CCC(N)=O)NC(=O)[C@@H](NC(=O)[C@H](C)NC(=O)[C@@H]1CSSC[C@H](NC(=O)[C@H](CCCCN)NC(=O)CC[C@H](NC(=O)CCCCCCCCCCCCCCCCC(=O)O)C(=O)O)C(=O)N[C@@H](CC(N)=O)C(=O)N[C@@H]([C@@H](C)O)C(=O)N[C@@H](C)C(=O)N[C@@H]([C@@H](C)O)C(=O)N1)[C@@H](C)O)C(=O)N[C@@H](CC(C)C)C(=O)N1CCC[C@H]1C(=O)N1CCC[C@H]1C(=O)N[C@H](C(=O)N[C@@H](CC(N)=O)C(=O)N[C@H](C(=O)NCC(=O)N[C@@H](CO)C(=O)N[C@@H](CC(N)=O)C(=O)N[C@H](C(=O)N[C@@H](Cc1ccc(O)cc1)C(N)=O)[C@@H](C)O)C(C)C)[C@@H](C)O [Example 46, N-alpha-[(S)-4-Carboxy-4-(17-carboxyheptadecanoylamino)butyryl]-[Glu14,His17]-pramlintide] ({C18 diacid-γGlu}-KCNTATCATQRLAEFLHHSSNNFGPILPPTNVGSNTY-NH2; disulfide 2-7 (inferred); C-terminus assumed) | 54% | – | 27% | –
2.7 h | – | – | CC[C@H](C)[C@H](NC(=O)[C@@H]1CCCN1C(=O)CNC(=O)[C@H](Cc1ccccc1)NC(=O)[C@H](CC(N)=O)NC(=O)[C@H](CC(N)=O)NC(=O)[C@H](CO)NC(=O)[C@H](CO)NC(=O)[C@H](Cc1c[nH]cn1)NC(=O)[C@H](Cc1c[nH]cn1)NC(=O)[C@H](CC(C)C)NC(=O)[C@H](Cc1ccccc1)NC(=O)[C@H](CCC(=O)O)NC(=O)[C@H](C)NC(=O)[C@H](CC(C)C)NC(=O)[C@H](CCCNC(=N)N)NC(=O)[C@H](CCC(N)=O)NC(=O)[C@@H](NC(=O)[C@H](C)NC(=O)[C@@H]1CSSC[C@H](NC(=O)[C@H](Cc2c[nH]cn2)NC(=O)[C@H](Cc2c[nH]cn2)NC(=O)[C@H](Cc2c[nH]cn2)NC(=O)CC[C@H](NC(=O)CCCCCCCCCCCCCCCCCCC(=O)O)C(=O)O)C(=O)N[C@@H](CCCNC(=N)N)C(=O)N[C@@H]([C@@H](C)O)C(=O)N[C@@H](C)C(=O)N[C@@H]([C@@H](C)O)C(=O)N1)[C@@H](C)O)C(=O)N[C@@H](CC(C)C)C(=O)N1CCC[C@H]1C(=O)N1CCC[C@H]1C(=O)N[C@H](C(=O)N[C@@H](CC(N)=O)C(=O)N[C@H](C(=O)NCC(=O)N[C@@H](CO)C(=O)N[C@@H](CC(N)=O)C(=O)N[C@H](C(=O)N[C@@H](Cc1ccc(O)cc1)C(N)=O)[C@@H](C)O)C(C)C)[C@@H](C)O [Example 22, N-alpha-[(S)-4-Carboxy-4-(19-carboxynonadecanoylamino)butyryl]-His-His-[His1,Arg3,Glu14,His17]-pramlintide] ({C20 diacid-γGlu}-HHHCRTATCATQRLAEFLHHSSNNFGPILPPTNVGSNTY-NH2; disulfide 4-9 (inferred)) | 26% | – | 5% | –
>45 h | – | >45 h | CC[C@H](C)[C@H](NC(=O)[C@@H]1CCCN1C(=O)CNC(=O)[C@H](Cc1ccccc1)NC(=O)[C@H](CC(N)=O)NC(=O)[C@H](CC(N)=O)NC(=O)[C@H](CO)NC(=O)[C@H](CO)NC(=O)[C@H](Cc1c[nH]cn1)NC(=O)[C@H](CCCNC(=N)N)NC(=O)[C@H](CC(C)C)NC(=O)[C@H](Cc1ccccc1)NC(=O)[C@H](CCC(=O)O)NC(=O)[C@H](C)NC(=O)[C@H](CC(C)C)NC(=O)[C@H](CCCNC(=N)N)NC(=O)[C@H](CCC(N)=O)NC(=O)[C@@H](NC(=O)[C@H](C)NC(=O)[C@@H]1CSSC[C@H](NC(=O)[C@H](CCCCN)NC(=O)CC[C@H](NC(=O)CCCCCCCCCCCCCCCCCCC(=O)O)C(=O)O)C(=O)N[C@@H](CC(N)=O)C(=O)N[C@@H]([C@@H](C)O)C(=O)N[C@@H](C)C(=O)N[C@@H]([C@@H](C)O)C(=O)N1)[C@@H](C)O)C(=O)N[C@@H](CC(C)C)C(=O)N1CCC[C@H]1C(=O)N1CCC[C@H]1C(=O)N[C@H](C(=O)N[C@@H](CC(N)=O)C(=O)N[C@H](C(=O)NCC(=O)N[C@@H](CO)C(=O)N[C@@H](CC(N)=O)C(=O)N[C@H](C(=O)N[C@@H](Cc1ccc(O)cc1)C(N)=O)[C@@H](C)O)C(C)C)[C@@H](C)O [Example 50, N-alpha-[(S)-4-Carboxy-4-(19-carboxynonadecanoylamino)butyryl]-[Glu14,Arg17]-pramlintide] ({C20 diacid-γGlu}-KCNTATCATQRLAEFLRHSSNNFGPILPPTNVGSNTY-NH2; disulfide 2-7 (inferred)) | 30% | – | 8% | –
